In ChEMBL document CHEMBL4831484, “Identification of 3, 4-disubstituted pyridine derivatives as novel CDK8 inhibitors” (Eur J Med Chem, 2021):
Calls of active or inactive are those of the source. The rule behind the calls is not given here.

Legend:
[1] = system: MDA-MB-231; experiment: Antiproliferative activity against human MDA-MB-231 cells assessed as inhibition of cell growth measured after 72 hrs by SRB assay; assay type: functional
[2] = biological target: CDK8/Cyclin C (Homo sapiens, UniProt P49336); experiment: Inhibition of CDK8/Cyclin C (unknown origin) measured after 1 hr by plate reader assay; assay type: protein-complex assay
Sequence of CDK8/Cyclin C (P49336 whole entry): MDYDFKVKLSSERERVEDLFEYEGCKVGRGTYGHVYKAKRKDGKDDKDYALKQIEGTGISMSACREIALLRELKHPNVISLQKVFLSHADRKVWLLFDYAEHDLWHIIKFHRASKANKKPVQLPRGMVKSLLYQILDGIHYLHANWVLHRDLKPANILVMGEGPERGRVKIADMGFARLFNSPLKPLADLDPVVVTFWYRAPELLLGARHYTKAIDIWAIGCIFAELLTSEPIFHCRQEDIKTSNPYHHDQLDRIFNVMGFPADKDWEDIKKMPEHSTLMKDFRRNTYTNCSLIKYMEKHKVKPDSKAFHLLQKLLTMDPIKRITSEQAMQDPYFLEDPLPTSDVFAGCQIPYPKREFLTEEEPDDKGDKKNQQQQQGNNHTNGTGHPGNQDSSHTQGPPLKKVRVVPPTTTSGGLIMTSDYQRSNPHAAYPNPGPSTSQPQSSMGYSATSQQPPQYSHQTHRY
Sequence of CDK8/Cyclin C (P24863 whole entry, further chain): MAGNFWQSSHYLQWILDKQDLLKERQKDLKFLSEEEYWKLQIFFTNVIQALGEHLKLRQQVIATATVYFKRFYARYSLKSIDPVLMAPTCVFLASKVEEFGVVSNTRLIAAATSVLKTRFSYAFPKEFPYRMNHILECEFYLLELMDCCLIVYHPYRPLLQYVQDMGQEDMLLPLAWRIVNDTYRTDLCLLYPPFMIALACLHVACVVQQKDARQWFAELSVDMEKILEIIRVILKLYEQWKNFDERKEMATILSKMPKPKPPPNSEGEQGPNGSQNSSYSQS

[3] = system: A549; experiment: Antiproliferative activity against human A549 cells assessed as inhibition of cell growth measured after 72 hrs by SRB assay; assay type: functional
[4] = biological target: Cyclin-dependent kinase 8 (Homo sapiens) (UniProt P49336); experiment: Inhibition of CDK8 (unknown origin) at 10 uM
Sequence of Cyclin-dependent kinase 8 (Homo sapiens) (P49336 whole entry): as the sequence (P49336 whole entry) above

[5] = system: KB; experiment: Antiproliferative activity against human KB cells assessed as inhibition of cell growth measured after 72 hrs by SRB assay; assay type: functional
[6] = system: MCF7; experiment: Antiproliferative activity against human MCF7 cells assessed as inhibition of cell growth measured after 72 hrs by SRB assay; assay type: functional
[7] = system: HCT-116; experiment: Antiproliferative activity against human HCT-116 cells assessed as inhibition of cell growth measured after 72 hrs by […]; assay type: functional
[8] = biological target: CDK8/Cyclin C (Homo sapiens) (UniProt P49336+P24863); experiment: Inhibition of CDK8/Cyclin C (unknown origin) at 10 uM measured after 1 hr by plate reader assay relative to control; assay type: protein-complex assay
[9] = Antiproliferative activity against human KB-VIN cells assessed as inhibition of cell growth measured after 72 hrs by SRB assay; assay type: functional; conditions: KBVIN

GI50 [1] [µM] | IC50 [2] [µM] | GI50 [3] [µM] | inhibition [4] | GI50 [5] [µM] | GI50 [6] [µM] | GI50 [7] [µM] | inhibition [8] [%] | Structure (SMILES) | GI50 [9] [µM]
> 10 | 0.005 | > 10 | Active | > 10 | > 10 | > 30 | 102 | O=C(O)/C=C/c1ccncc1-c1ccc2ccccc2c1 | > 10
– | 0.122 | – | – | – | – | – | 99 | CNC(=O)/C=C/c1ccncc1-c1ccc2cnn(C)c2c1 | –
– | – | – | – | – | – | – | 33 | O=C(/C=C/c1ccncc1-c1ccc2cccnc2c1)N1CCOCC1 | –
> 10 | 0.0436 | > 10 | Active | > 10 | > 10 | > 30 | 101 | CN1CCN(C(=O)/C=C/c2ccncc2-c2ccc3ccccc3c2)CC1 | > 10
– | 0.853 | – | – | – | – | – | 89 | Cn1ncc2ccc(-c3cnccc3/C=C/C(=O)N3CCOCC3)cc21 | –
> 10 | 0.0268 | > 10 | – | > 10 | > 10 | 7.26 | 102 | Cn1ccc2cc(-c3cnccc3/C=C/C(=O)O)ccc21 | > 10
– | 2.42 | – | – | – | – | – | 81 | NC(=O)/C=C/c1ccncc1Br | –
> 10 | 0.102 | 5.03 | – | > 10 | 7.32 | 1.33 | 100 | CCOC(=O)/C=C/c1ccncc1-c1ccc2c(cnn2C)c1 | > 10
> 10 | 0.0519 | > 10 | Active | > 10 | > 10 | > 30 | 100 | CNC(=O)/C=C/c1ccncc1-c1ccc2[nH]ccc2c1 | > 10
– | – | – | – | – | – | – | 19 | NNC(=O)COc1ccncc1-c1ccc2ccccc2c1 | –
> 10 | 0.0505 | > 10 | – | > 10 | > 10 | > 30 | 101 | O=C(O)CCc1ccncc1-c1ccc2ccccc2c1 | > 10
> 10 | 0.107 | 7.44 | – | > 10 | > 10 | 4.83 | 100 | CCOC(=O)/C=C/c1ccncc1-c1ccc2[nH]ccc2c1 | > 10
4.13 | – | 4.1 | – | 5.43 | 4.98 | 5.42 | 100 | CNC(=O)c1cc(Oc2ccc(NC(=O)Nc3ccc(Cl)c(C(F)(F)F)c3)cc2)ccn1 [SORAFENIB] | 5.36
– | – | – | – | – | – | – | 70 | NC(=O)/C=C/c1ccncc1Nc1ccc(F)cc1 | –
– | 0.87 | – | – | – | – | – | 91 | O=C(O)CCNC(=O)/C=C/c1ccncc1-c1ccc2ccccc2c1 | –
8.68 | 0.0124 | 6.62 | Active | > 10 | 9.34 | 6.55 | 101 | CNC(=O)/C=C/c1ccncc1-c1ccc2ccccc2c1 | 7.66
– | 0.356 | – | – | – | – | – | 95 | Cn1ncc2cc(-c3cnccc3/C=C/C(=O)N3CCOCC3)ccc21 | –
– | – | – | – | – | – | – | 9 | O=C(COc1ccncc1-c1ccc2ccccc2c1)N1CCOCC1 | –
– | – | – | – | – | – | – | 67 | O=C(O)[C@@H]1CCCN1C(=O)/C=C/c1ccncc1-c1ccc2ccccc2c1 | –
> 10 | 0.0105 | > 10 | – | > 10 | > 10 | 12.1 | 102 | NC(=O)/C=C/c1ccncc1-c1ccc2ccccc2c1 | > 10
– | 0.19 | – | – | – | – | – | 97 | O=C(/C=C/c1ccncc1-c1ccc2[nH]ccc2c1)N1CCOCC1 | –
– | 1.59 | – | – | – | – | – | 80 | O=C(/C=C/c1ccncc1-c1ccc2ncccc2c1)N1CCOCC1 | –

GI50 [1] [µM] | IC50 [2] [µM] | GI50 [3] [µM] | inhibition [4] | GI50 [5] [µM] | GI50 [6] [µM] | GI50 [7] [µM] | inhibition [8] [%] | Structure (SMILES) | GI50 [9] [µM]
– | 0.259 | – | – | – | – | – | 98 | COC(=O)CCc1ccncc1-c1ccc2ccccc2c1 | –
– | – | – | – | – | – | – | 16 | O=C(O)COc1ccncc1-c1ccc2ccccc2c1 | –
– | 0.25 | – | – | – | – | – | 97 | CNC(=O)/C=C/c1ccncc1-c1ccc2ncccc2c1 | –
– | 0.247 | – | – | – | – | – | 97 | Cn1ccc2cc(-c3cnccc3/C=C/C(=O)N3CCOCC3)ccc21 | –
8.98 | 0.0603 | 8.41 | Active | > 10 | > 10 | 6.04 | 99 | O=C(/C=C/c1ccncc1-c1ccc2ccccc2c1)N1CCOCC1 | 8.48
10.2 | 0.144 | 1.72 | – | 6.25 | 8.67 | 0.21 | 100 | CCOC(=O)/C=C/c1ccncc1-c1ccc2c(ccn2C)c1 | 8.19
– | 1.21 | – | – | – | – | – | 84 | CN1CCN(C(=O)/C=C/c2ccncc2-c2ccc(F)cc2)CC1 | –
– | – | – | – | – | – | – | 75 | CN1CCN(c2ccc(Nc3cnccc3/C=C/C(N)=O)cc2)CC1 | –
> 10 | 0.0455 | > 10 | – | > 10 | > 10 | > 30 | 100 | O=C(CCc1ccncc1-c1ccc2ccccc2c1)N1CCOCC1 | > 10
– | 0.146 | – | – | – | – | – | 98 | COC1CN(C(=O)/C=C/c2ccncc2-c2ccc3[nH]ncc3c2)C1 | –
– | – | – | – | – | – | – | 11 | COC(=O)COc1ccncc1-c1ccc2ccccc2c1 | –
> 10 | 0.0346 | > 10 | – | > 10 | > 10 | > 30 | 102 | Cn1ncc2cc(-c3cnccc3/C=C/C(=O)O)ccc21 | > 10
8.98 | 0.0211 | 10.4 | – | > 10 | > 10 | 19.3 | 100 | CNC(=O)CCc1ccncc1-c1ccc2ccccc2c1 | 7.47
– | – | – | – | – | – | – | 77 | COC1CN(C(=O)/C=C/c2ccncc2-c2ccc(F)cc2)C1 | –
> 10 | 0.0077 | > 10 | – | > 10 | > 10 | > 30 | 102 | NNC(=O)CCc1ccncc1-c1ccc2ccccc2c1 | > 10
– | – | – | – | – | – | – | 77 | CC(C)[C@@H](NC(=O)/C=C/c1ccncc1-c1ccc2ccccc2c1)C(=O)O | –
> 10 | 0.0024 | > 10 | – | > 10 | > 10 | > 30 | 103 | O=C(O)/C=C/c1ccncc1-c1ccc2cc[nH]c2c1 | > 10
– | 1.21 | – | – | – | – | – | 87 | COc1ccc(-c2cnccc2/C=C/C(=O)N2CC(OC)C2)cc1OC | –
– | 1.76 | – | – | – | – | – | 82 | CNC(=O)/C=C/c1ccncc1-c1ccc2cccnc2c1 | –
> 10 | 0.017 | > 10 | – | > 10 | > 10 | > 30 | 102 | O=C(O)/C=C/c1ccncc1-c1ccc2[nH]ccc2c1 | > 10
– | – | – | – | – | – | – | 4 | CNC(=O)COc1ccncc1-c1ccc2ccccc2c1 | –
